In general, IC50 refers to the point on the concentration scale where inhibition reaches its midpoint.

Molecules are shown by their SMILES.

This is an account of results in US20110177161A1, “PHARMACEUTICAL COMPOSITIONS OF [5(S)-(2'-HYDROXYETHOXY)-20(S)-CAMPTOTHECIN” (DR. REDDY'S LABORATORIES LIMITED, priority 2007, published 2011).

The target in one data set is T1, Topoisomerase I (Homo sapiens, UniProt P11387).
T1 construct: purchased Topogen, Inc., Port Orange, Fla
T1 sequence (P11387 1-765): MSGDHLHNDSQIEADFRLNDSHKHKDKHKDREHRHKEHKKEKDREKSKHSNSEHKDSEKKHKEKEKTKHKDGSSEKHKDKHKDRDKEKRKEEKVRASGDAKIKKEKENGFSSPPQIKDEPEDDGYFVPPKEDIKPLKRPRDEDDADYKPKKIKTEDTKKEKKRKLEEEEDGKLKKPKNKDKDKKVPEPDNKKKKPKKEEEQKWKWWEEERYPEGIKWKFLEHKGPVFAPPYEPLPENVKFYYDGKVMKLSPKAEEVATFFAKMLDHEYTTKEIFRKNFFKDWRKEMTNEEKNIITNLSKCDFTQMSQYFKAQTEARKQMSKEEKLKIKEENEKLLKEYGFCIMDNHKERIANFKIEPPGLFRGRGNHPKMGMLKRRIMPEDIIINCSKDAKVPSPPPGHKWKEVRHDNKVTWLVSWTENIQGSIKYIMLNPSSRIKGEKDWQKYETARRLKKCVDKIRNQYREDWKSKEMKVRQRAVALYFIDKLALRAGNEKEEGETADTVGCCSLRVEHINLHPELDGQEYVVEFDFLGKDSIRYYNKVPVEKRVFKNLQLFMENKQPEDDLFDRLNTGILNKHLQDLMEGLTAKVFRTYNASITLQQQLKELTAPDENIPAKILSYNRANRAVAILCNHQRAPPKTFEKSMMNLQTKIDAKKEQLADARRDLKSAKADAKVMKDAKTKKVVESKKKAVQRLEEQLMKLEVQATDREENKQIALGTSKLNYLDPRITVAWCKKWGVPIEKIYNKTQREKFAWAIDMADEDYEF
Kind of data set: Topoisomerase assay (TopoGEN Topo I Drug Screening Kit). It counts as biochemical. The text has this:
Topoisomerase I introduces transient nicks in DNA at specific sites. Detection of these transient DNA nicks requires trapping the enzyme on DNA in a nicked intermediate complex using protein denaturants. The resulting covalent DNA/top I complexes contain nicked open circular DNA which can be detected by agarose gel electrophoresis (with ethidium bromide). Trapping nicked intermediates is relatively inefficient, however, inhibitors, such as the natural product camptothecin, stabilize the intermediate and lead to an increase in the nicked DNA product. This forms the basis for a mechanistic drug screen designed to allow detection of agents that affect topoisomerase I by stabilizing the cleaved intermediate complex.
The TopoGEN Topo I Drug Screening Kit (Topogen, Inc., Port Orange, Fla.) is designed to allow the investigator to quickly identify novel inhibitors of topoisomerase I. The kit allows the detection of novel compounds that either stabilize the nicked intermediate or otherwise inhibit catalytic activity of topoisomerase I.
The above reaction mixture is incubated at 37 degree C. for 30 minutes. The reaction is terminated by adding 2 μl of 10% SDS and the mixture is vortexed rapidly (SDS should be added while at 37 degree C. as cooling the tubes might reseal the nicked DNA). 10× Dye, about 2.5 μl per tube, is added and equal volumes of a mixture of chloroform and isoamyl alcohol (24:1) is added and centrifuged at 13000 rpm for 10 minutes. Samples are loaded on a 1% agarose gel and electrophoresed for 1 hour at 80 volts. The gel was viewed on UV transilluminator and the densitometric estimation of the bands was calculated.
The density of the DNA bands of both super coiled and relaxed forms of DNA was measured using the densitometer. The band intensity of treated (with single concentration of the test drug) and without the drug (i.e., the Control) were recorded. The percentage of relaxed form DNA compared to the supercoiled DNA was calculated for all the lanes including treated and control. • % inhibition of Topoisomerase activity was calculated as: […]

The test system of data set [1] is Saos-2 cells over expressing functional BCRP#4. The data set is described as follows: cells. It is filed as cell-based, human. The following applies: for IC50: Homo sapiens, SAOS-2, 144 h, read-out: BCRP mut#4 (IC50 (nM)). The method, then: (§1) The anticancer effect of 5(S)-(2′-hydroxyethoxy)-20(S)-camptothecin & 5(R)-(2′-hydroxyethoxy)-20(S)-camptothecin were evaluated versus the racemate 5(RS)-(2′-hydroxyethoxy)-20(S)-camptothecin on Saos-2 cells over expressing functional BCRP#4 and non-functional BCRP mut#10. The human osteosarcoma cell line, Saos-2, was obtained from ATCC (American Type Culture Collection, Cat#HTB-85, Manassas, Va.) and were maintained in DMEM containing 10% fetal bovine serum, 1% penicillin/streptomycin, and 2 mM glutamine. Saos-2 cells were transfected with either BCRP#4 to over express functional BCRP or BCRP#10 to over express non-functional BCRP transporter. The cells were plated in 96-well plates at a density of 1000 cells per each well in a 0.1 ml of medium and allowed to attach overnight. The next morning the medium was gently aspirated and serial dilutions of the compounds to be tested were added. The cells were incubated at 37° C. in a 5% CO2 incubator. After 6 days of exposure to the test drugs, 10µl of Alamar blue was added aseptically to each well and the plates were returned to the incubator for 6 hr. The amount of the fluorescent dye produced was measured on a Cytofluor.RTM. 2300 (Millipore, Bedford, Mass.) using an excitation wavelength of 530 nm and emission wavelength of 590 nm. The relative fluorescence units obtained were used to calculate the percentage growth at each concentration in relation to the untreated control values. From the percentage growth values the IC50 (inhibitory concentration required to inhibit the cell growth by 50% compared to control cells growth) values were derived.

The test system of data set [2] is Saos-2 cells over expressing non-functional BCRP mut#10. Kind of data set: cells. It counts as cell-based, human. The following applies: for IC50: Homo sapiens, SAOS-2, 144 h, read-out: BCRP mut#10 (IC50 (nM)). The method, then:
as §1

`CC[C@@]1(O)C(=O)OCc2c1cc1n(c2=O)C(OCCO)c2cc3ccccc3nc2-1` (mixture of isomers) [5(RS)-(2′-hydroxyethoxy)-20(S)-camptothecin, reference compound]: the half-maximal inhibitory concentration (IC50) was 12500 nM at Topoisomerase I, 1260 nM in data set [1] and 387 nM in data set [2].
In the case of `CC[C@@]1(O)C(=O)OCc2c1cc1n(c2=O)[C@@H](OCCO)c2cc3ccccc3nc2-1` [DRF-(5S,20S)-1042, 5(S)-(2′-hydroxyethoxy)-20(S)-camptothecin], on Topoisomerase I, the “fold more active than 5(R)-(2′-hydroxyethoxy)-20(S)-camptothecin in inhibiting topoisomerase I” value is reported as “about 21 fold” and the “times more active than 5(RS)-(2′-hydroxyethoxy)-20(S)-camptothecin in inhibiting topoisomerase I” value is listed as “about 12 times”. Also, in data set [1], the “fold more cytotoxic than 5(R)-(2′-hydroxyethoxy)-20(S)-camptothecin” value is given as over 2.5 fold and the IC50 came to 788 nM. In data set [2], the “fold more cytotoxic than 5(R)-(2′-hydroxyethoxy)-20(S)-camptothecin” value is about 6 fold and the half-inhibitory concentration (IC50) was 213 nM.
